Experimental findings from ChEMBL document CHEMBL4145602, “Cyclic Peptidic Mimetics of Apollo Peptides Targeting Telomeric Repeat Binding Factor 2 (TRF2) and Apollo Interaction” (ACS Med Chem Lett, 2018) are described below.

SMILES strings stand for the structures. Peptide text beside a SMILES is read from it.

This experiment addresses T1, Telomeric repeat-binding factor 2 (Homo sapiens, UniProt Q15554).
T1 sequence (Q15554 whole entry): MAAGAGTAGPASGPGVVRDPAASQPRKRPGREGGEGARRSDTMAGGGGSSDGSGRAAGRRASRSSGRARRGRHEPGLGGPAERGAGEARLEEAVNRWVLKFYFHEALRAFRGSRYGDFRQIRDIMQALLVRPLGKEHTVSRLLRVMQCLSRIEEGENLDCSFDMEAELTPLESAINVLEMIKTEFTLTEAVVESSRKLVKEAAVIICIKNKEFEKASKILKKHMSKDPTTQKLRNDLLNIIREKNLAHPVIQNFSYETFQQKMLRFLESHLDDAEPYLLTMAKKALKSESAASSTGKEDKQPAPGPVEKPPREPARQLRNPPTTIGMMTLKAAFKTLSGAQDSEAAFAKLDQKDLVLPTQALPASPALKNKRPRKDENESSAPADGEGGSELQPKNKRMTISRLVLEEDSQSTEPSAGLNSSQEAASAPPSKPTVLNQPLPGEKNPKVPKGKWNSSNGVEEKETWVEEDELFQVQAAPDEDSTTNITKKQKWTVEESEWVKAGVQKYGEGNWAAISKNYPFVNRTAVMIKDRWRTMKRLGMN
In words: Displacement of 5-((2R,6S,9S,12S,15S,18S,21S,24S)-3-((S)-2-((S)-1-amino-3-methyl-1-oxobutan-2-ylcarbamoyl)pyrrolidine-1-carbonyl)-15-(4-aminobutyl)-2-hydroxy-12-(4-hydroxybenzyl)-6,9,18,24-tetraisobutyl-21-methyl-5,8,11,14,17,20,23,26,29-nonaoxo-4,7,10,13,16,19,22,25,28-nonaazatetratriacontan-34-ylcarbamoyl)-2-(6-hydroxy-3-oxo-3H-xanthen-9-yl)benzoic acid from TRF2 TRFH domain (unknown origin) after 30 mins by fluorescence polarization assay. (In general: Fluorescence polarisation rises when a labelled molecule tumbles more slowly, as on binding a larger partner.)
By Ki is commonly meant a measure of affinity in units of concentration, obtained from inhibition or displacement. For the compound `CC(C)C[C@@H]1NC(=O)[C@@H](NC(=O)[C@@H](N)Cc2ccccc2)CCCCCCC[C@@H](C(=O)N(C)C)NC(=O)[C@@H]2CCCN2C(=O)[C@H](C)NC1=O`, the inhibitory constant (Ki) is 41.4 µM. In other words, the double-digit micromolar range.

In turn, `CC(C)C[C@@H]1NC(=O)[C@@H](NC(=O)[C@@H](N)Cc2ccccc2)CCCCCCCC[C@@H](C(=O)N(C)C)NC(=O)[C@@H]2CCCN2C(=O)[C@H](C)NC1=O` registered a Ki of 43.2 µM. This Ki and that of the compound before are within 1.5-fold of each other.

`CC(=O)N[C@@H](CC(C)C)C(=O)N[C@@H](C)C(=O)N[C@@H](CC(C)C)C(=O)N[C@@H](CCCCN)C(=O)N[C@@H](Cc1ccc(O)cc1)C(=O)N[C@@H](CC(C)C)C(=O)N[C@@H](CC(C)C)C(=O)N[C@@H](C)C(=O)N1CCC[C@H]1C(=O)N[C@H](C(N)=O)C(C)C` (Ac-LALKYLLAPV-NH2) gave a Ki of 0.24 µM.

Regarding `CC(=O)N[C@@H](CC(C)C)C(=O)N[C@@H](C)C(=O)N[C@@H](CC(C)C)C(=O)N[C@@H](CCCCN)C(=O)N[C@@H](Cc1ccc(O)cc1)C(=O)N[C@@H](CC(C)C)C(=O)N[C@H](C(=O)N[C@H](C(=O)N1CCC[C@H]1C(=O)N[C@H](C(N)=O)C(C)C)[C@@H](C)O)C(C)C` (Ac-LALKYLVTPV-NH2), the Ki turned out to be 61.2 µM. Compared with the last compound, the Ki is about 260-fold higher.
